How the values were obtained:
SJL mice with acute EAE = test: Mouse acute EAE model, daily clinical scoring; type: in vivo; conditions: Mesopram 9 mg/kg, Prednisolone 2.5 mg/kg, IP twice daily
GAL-4 DBS = conditions: read-out: Kd for binding; cited from earlier work

Row | Molecule | clinical scores of EAE, positive controls (SJL mice with acute EAE; first study) | clinical scores of EAE, positive controls (SJL mice with acute EAE; second study) | Kd (GAL-4 DBS)
1 | CCCOc1cc([C@]2(C)CNC(=O)O2)ccc1OC [Mesopram, reference compound] | significantly decreased clinical scores | significantly decreased clinical scores | 
2 | GAL-4 residues 1-100: N-terminal DNA binding fragment of yeast GAL-4 protein |  |  | 3 nM
3 | C[C@]12C=CC(=O)C=C1CC[C@@H]1[C@@H]2[C@@H](O)C[C@@]2(C)[C@H]1CC[C@]2(O)C(=O)CO [Prednisolone, reference compound] | significantly decreased clinical scores | significantly decreased clinical scores | 
